Values of other authors, collected in patent US20140187648A1, “Identifying Subjects in Need of Treatment” (HOWARD FOUNDATION HOLDINGS LTD., priority 2013, published 2014).

Tested on: subjects who exhibit an abnormally low concentration of MP in the central portion of the retina

| Compound | effect on MP (subjects with abnormally low MP in the central portion of the retina) | MP levels outside the central portion of the retina (subjects with abnormally low central MP) | MP levels in the central portion of the retina (subjects with abnormally low central MP, eccentricity 0.25° or less) |
| --- | --- | --- | --- |
| CC1=C[C@H](O)CC(C)(C)[C@H]1/C=C/C(C)=C/C=C/C(C)=C/C=C/C=C(C)/C=C/C=C(C)/C=C/C1=C(C)C[C@@H](O)CC1(C)C [lutein, reference compound] | little effect | – | – |
| meso-zeaxanthin [MZ] | – | little effect | return MP levels in the central portion of the retina substantially to normal |
